Results: patent US11440935B2, “3″,5″-dimethoxybenzoyl-3′-amino-3′-deoxy adenosine-5′-triphosphates and pharmaceutical uses thereof” (Danmir Therapeutics, LLC, priority 2018, dated 2022)
Several values for one entry are separate records, joined by “and”; a condition that tells them apart may be missing. Equal values may be shown once. Entries after “also recorded” stand apart in the source; their conditions may differ. Where a name gives a salt, the structure may show the parent alone. Blank lines part the entries; values can stand above or below the compound they belong to.

Assays:
P2X3 receptor = settings: guinea pig airway-specific primary nodose ganglion cell afferents; cited from earlier work
conscious guinea-pigs = assay: Aerosolized ATP-induced cough in conscious free moving guinea-pigs; format: in vivo, guinea-pig
Protocol: This study was performed in 6 guinea-pigs. The housing room was constantly ventilated, and the temperature kept at ˜23° C. After quarantine, the animals were individually placed in a whole-body, unrestrained, plethysmograph chamber (model PLY3215, Buxco Electronics Inc., Troy, N.Y.) for ˜40 min once a day for two continuous days before the cough test. All GPs were weighed before the cough study.
ATP was purchased from Sigma-Aldrich (Cat #A2383-10G). Solutions of ATP used for aerosol challenge were freshly made just prior to use by dissolving the powder in 0.9% saline (NaCl) solution. Solutions of DT-0111 used for aerosol administration were freshly made by dissolving the powder in 0.9% saline (NaCl) solution.
A plethysmograph chamber was continuously flushed with normoxic (21% O2 and 79% N2) room air at 2 L/min. The same amount of air was drawn through the chamber base outlets using a Buxco bias flow regulator to keep the chamber bias flow balanced. ATP or DT solution was aerosolized by using a vibrating mesh nebulizer (Ireland Ltd., Galway Ireland, AG-AL1100). The output rate of delivered aerosol was around 0.5 ml/min with droplet size (volume median diameter) at 2.5-4.0 μm (manufacture's indications). The aerosol was mixed with airflow and directly delivered into the plethysmograph chamber. The latter was placed in a standard chemical fume hood (size: 3×6 ft) installed in a standard laboratory.
A guinea-pig was placed in the chamber again after adaptation. Following stabilization, #1 guinea-pig was exposed to aerosolized ATP at 6 mg/ml, 24 mg/ml, and then 48 mg/ml for 5 min with an interval of 30 min. The remaining animals (#2-#6 guinea-pigs) were exposed to aerosolized ATP at 48 mg/ml for 5 min. Approximately 140 min later, the same dose of ATP was repeated immediately after DT-0111 aerosol inhalation (12 mg/ml for 5 min). […] The cough sound and behavioral activities were continuously monitored and recorded before (for 3 min), during 5 min aerosol delivery, and 20 min after cessation of the delivery.
Setup of the cough recording system. The top of the plethysmograph chamber was connected with a plastic tube that was attached by the nebulizer. Normoxic air driven by the nebulizer controller was flowed into the chamber and sucked out by the bias flow regulator with the in and out flow volume balanced (2.0 L/min). To detect cough, a microphone system was mounted in the roof of the chamber to record sound; a video camera was placed outside of the chamber to monitor animal body posture; and a Buxco pneumotachograph (differential pressure transducer) attached to the chamber to record airflow. All signals generated by video camera, microphone, and pressure transducer were amplified and recorded continuously by PowerLab/8 sp (model ML 785; ADInstruments Inc., Colorado Springs, Colo.) and a computer with the LabChart Pro 7 software.
Cough count. A typical cough response, as reported before (Girard et al., Eur Respir J, 1995; Blasko et al., American Journal of Advanced Drug Delivery. 5:131-138, 2017; Corboz et al., Journal of Pharmacology and Experimental Therapeutics. 363: 348-357, 2017), was defined by the simultaneous appearance of: 1) a transient and great change in the airflow (a rapid inspiration followed by rapid expiration); 2) a typical cough sound with the peak power density at 1-2 kHz in frequency spectrum (sneeze at 3.5-6.5 kHz); and 3) animal body (head) posture and movement.

P2X2/3 receptor = target: T1, P2X2/3 receptor (Rattus norvegicus, UniProt P49653+P49654); assay: Nodose ganglion neuron assay of P2X2/3 receptor antagonism (whole-cell voltage-clamp); format: cell-based; settings: rat nodose ganglionic cell; for antagonism of ATP-induced inward current: ATP 10 μM, whole-cell voltage clamp
T1 construct: Single neurons were enzymatically isolated from rats' nodose ganglia; from tissue; host or cells: dissociated nodose ganglion neurons of 17-day-old male Sprague-Dawley rats
T1 sequence (P49653 1-472): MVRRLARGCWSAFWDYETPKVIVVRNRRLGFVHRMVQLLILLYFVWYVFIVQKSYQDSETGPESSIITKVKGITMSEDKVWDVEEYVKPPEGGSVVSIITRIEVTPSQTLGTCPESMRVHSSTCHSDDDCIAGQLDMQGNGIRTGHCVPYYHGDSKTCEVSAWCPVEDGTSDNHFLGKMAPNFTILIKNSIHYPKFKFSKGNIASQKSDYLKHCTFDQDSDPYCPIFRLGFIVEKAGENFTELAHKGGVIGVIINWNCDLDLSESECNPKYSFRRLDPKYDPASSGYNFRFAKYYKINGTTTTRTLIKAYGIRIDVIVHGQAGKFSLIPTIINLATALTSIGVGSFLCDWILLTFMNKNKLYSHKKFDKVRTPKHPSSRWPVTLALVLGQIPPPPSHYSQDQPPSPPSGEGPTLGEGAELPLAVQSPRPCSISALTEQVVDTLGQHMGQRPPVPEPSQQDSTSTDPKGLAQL
T1 sequence (P49654 1-397): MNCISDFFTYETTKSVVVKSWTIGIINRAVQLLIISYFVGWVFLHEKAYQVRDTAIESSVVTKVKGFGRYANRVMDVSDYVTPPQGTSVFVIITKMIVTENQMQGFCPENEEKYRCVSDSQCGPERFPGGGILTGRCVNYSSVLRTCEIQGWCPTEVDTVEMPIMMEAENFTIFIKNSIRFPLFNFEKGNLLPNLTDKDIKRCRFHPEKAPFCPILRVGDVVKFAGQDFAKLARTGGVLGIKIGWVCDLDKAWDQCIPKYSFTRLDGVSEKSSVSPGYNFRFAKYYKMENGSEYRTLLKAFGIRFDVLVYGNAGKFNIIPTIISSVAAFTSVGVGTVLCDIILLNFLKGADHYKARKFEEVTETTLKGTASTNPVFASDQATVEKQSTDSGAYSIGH
Protocol: Single neurons were enzymatically isolated from rats' nodose ganglia as described by Zhong et al., Br J Pharmacol 1998; 125, 771-781. Briefly, 17- day old male Sprague-Dawley rats were killed by CO2 inhalation. Ganglia were rapidly dissected and placed in Leibovitz's L-15 medium (Life Technologies, Paisley, UK). Ganglia were desheathed, cut and incubated in 4 ml Ca^2+/Mg^2+-free Hanks' balanced salt solution with 10 mm Hepes buffer (pH 7.0) (HBSS) (Life Technologies) containing 1.5 mg ml-1 collagenase (Class-II; Worthington Biochemical Corporation, Reading, UK) and 6 mg ml-1 bovine serum albumin (Sigma) at 37° C. for 40 min. Ganglia were then incubated with 4 ml HBSS containing 1 mg ml-1 trypsin (Sigma) at 37° C. for 20 min. The solution was replaced with 3 ml of growth medium comprising L-15 medium supplemented with 10% bovine serum, 50 ng ml-1 nerve growth factor, 0.2% NaHCO3, 5.5 mg ml-1 glucose, 200 IU ml-1 penicillin and 200 μg ml-1 streptomycin. The ganglia were dissociated into single neurons by gentle trituration. The cells were then centrifuged at 160 g for 5 min, resuspended in 1 ml of growth medium, and plated onto 35 mm Petri dishes coated with 10 μg ml-1 laminin (Sigma). Cells were maintained at 37° C. in a humidified atmosphere containing 5% CO2 and used between 2 and 48 hours after plating.
Whole-cell voltage-clamp recordings were performed at room temperature using an Axopatch 200B amplifier (Axon Instruments, Union City, Calif., USA). Membrane potential was held at […]. The external solution contained (mM): 154 NaCl, 4.7 KCl, 1.2 MgCl2, 2.5 CaCl2), 10 Hepes, 5.6 glucose, and the pH was adjusted to 7.4 using NaOH. Recording electrodes (resistance […]) were filled with an internal solution which contained (mm): 56 citric acid, 3 MgCl2, 10 CsCl, 10 NaCl, […], 0.1 EGTA, 10 tetraethylammonium chloride, and the pH was adjusted to 7.2 using CsOH (total Cs+concentration 170 mm). […] Solution exchange measured by changes in open tip current was complete in 200 ms; however, complete exchange of solution around an intact cell was slower (<1 s). […]

P2X3-P2X2/3 = settings: experimental animals; cited from earlier work
[1] = ATP (48 mg/ml) aerosol 5 min alone, per guinea-pig

Structure (SMILES): COc1cc(C(C)C)c(Oc2cnc(N)nc2N)cc1I [AF-353]
effect on TRPV4 receptor activation effects (Aδ fiber stimulation and coughing) (P2X3 receptor): markedly attenuated

Structure (SMILES): Nc1ncnc2c1ncn2[C@@H]1O[C@H](COP(=O)(O)OP(=O)(O)OP(=O)(O)O)[C@@H](O)[C@H]1O [ATP, adenosine 5′-triphosphate]
cough evoked by aerosolized ATP (conscious guinea-pigs; ATP 48 mg/ml, 5 min exposure, all animals): evoked significant coughs
Bout Cough B1# (cough number in first bout) (conscious guinea-pigs; [1]): 24 and 14 and 18 and 19 and 21
Individual Cough (conscious guinea-pigs; [1]): 3 and 0 (2×) and 1 (3×)
Subtotal coughs (conscious guinea-pigs; ATP (48 mg/ml) aerosol 5 min alone, per guinea-pig and Mean): 27 and 24 and 35 and 19 and 22

antagonism of ATP-induced inward current (P2X2/3 receptor; listed as 3″,5″-dimethoxybenzoyl-3′-amino-3′-deoxyadenosine-5′-triphosphate triethylammoni, Ammonium Salt): substantially abrogated
reversibility of antagonism on washout (P2X2/3 receptor; after washing out the antagonist): reversible
Structure (SMILES): COc1cc(OC)cc(C(=O)NC2C(O)[C@H](n3cnc4c(N)ncnc43)O[C@@H]2COP(=O)(O)OP(=O)(O)OP(=O)(O)O)c1 (stereo partly drawn) [Compound 11, 3″,5″-Dimethoxybenzoyl-3′-amino-3′-deoxyadenosine-5′-triphosphate Triethyl Ammonium Salt]
antagonism of ATP-induced inward current (P2X2/3 receptor; listed as compound 11, Ammonium Salt): substantially abrogated; also recorded: complete antagonism at the higher concentrations

Structure (SMILES): O=C(O)c1cc(C(=O)O)c(C(=O)N(Cc2cccc(Oc3ccccc3)c2)[C@H]2CCCc3ccccc32)cc1C(=O)O [Compound A-317491]
effect on cyclophosphamide (CYP)-induced cystitis (P2X3-P2X2/3): inhibit cyclophosphamide (CYP)-induced cystitis
